Patent US20240041042A1, “1-(PYRIDYL)-5-AZINYLPYRAZOLE DERIVATIVES, AND THEIR USE FOR CONTROL OF UNDESIRED PLANT GROWTH” (Bayer Aktiengesellschaft, priority 2020, published 2024)
Like-named read-outs stand apart in the source and are kept apart here. Values belong to the molecule of their own block, whether it stands above or below them.

How the values were obtained:
Assay type in all cases: in vivo
Avena fatua (AVEFA) [1] = test: Pre-emergence herbicidal action against AVEFA; conditions: 320 g/ha, visual scoring after about 3 weeks vs untreated controls
Method in brief: (§1)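 Seeds sown in pots and covered with soil; WP or EC formulations sprayed onto the soil surface at 600 l/ha water with 0.5% additive, at 320 g/ha or lower. Greenhouse growth for about 3 weeks, then visual scoring as % effect against untreated controls (100% = plants dead).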

Setaria viridis (SETVI) [2] = test: Post-emergence herbicidal action against SETVI; conditions: dosage 80 g/ha
Method in brief: (§2)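 Post-emergence greenhouse spray, one-leaf stage, 600 l/ha water plus 0.5% additive; WP or EC formulations; application rates 320 g/ha or lower. Visual % damage vs untreated controls at ~3 weeks.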

[3] = tested on: Verconica persica (VERPE); test: Post-emergence herbicidal action against VERPE; conditions: dosage 80 g/ha
Method in brief: as §2

[4] = tested on: Alopecurus myosuroides (ALOMY); test: Post-emergence herbicidal action against ALOMY; conditions: 80 g/ha, visual rating about 3 weeks after treatment vs untreated controls (100% = plants have died, 0% = like control plants)
Method in brief: as §2

Lolium rigidum (LOLRI) [5] = test: Post-emergence herbicidal action against LOLRI; conditions: dosage 80 g/ha
Method in brief: as §2

Setaria viridis (SETVI) [6] = test: Pre-emergence herbicidal action against SETVI
Method in brief: as §1

[7] = tested on: Alopecurus myosuroides (ALOMY); test: Pre-emergence herbicidal action against ALOMY; conditions: scored visually after about 3 weeks, 100% = plants have died
Method in brief: as §1

Viola tricolor (VIOTR) = test: Pre-emergence herbicidal action against VIOTR
Method in brief: as §1

[8] = tested on: Pharbitis purpurea (PHBPU); test: Pre-emergence herbicidal action against PHBPU
Method in brief: as §1

[9] = tested on: Polygonum convolvulus (POLCO); test: Post-emergence herbicidal action against POLCO; conditions: dosage 80 g/ha
Method in brief: as §2

[10] = tested on: Amaranthus retroflexus (AMARE); test: Post-emergence herbicidal action against AMARE; conditions: 80 g/ha, visual rating about 3 weeks after treatment vs untreated controls (100% = plants have died, 0% = like control plants)
Method in brief: as §2

[11] = tested on: Abutilon theophrasti (ABUTH); test: Pre-emergence herbicidal action against ABUTH; conditions: 100% = plants have died
Method in brief: as §1

[12] = tested on: Pharbitis purpurea (PHBPU); test: Post-emergence herbicidal action against PHBPU; conditions: dosage 80 g/ha
Method in brief: as §2

[13] = tested on: Amaranthus retroflexus (AMARE); test: Pre-emergence herbicidal action against AMARE; conditions: visual scoring after about 3 weeks vs untreated controls
Method in brief: as §1

Lolium rigidum (LOLRI) [14] = test: Pre-emergence herbicidal action against LOLRI
Method in brief: as §1

Oryza sativa (ORYSA) = conditions: crop plant compatibility
Method in brief: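 Visual rating (% effect vs. untreated plants; 100% = plant death) made about 3 weeks after treatment. Plants had been sprayed at one-leaf stage, 2–3 weeks post-sowing, with aqueous WP/EC preparations containing 0.5% additive, 600 l/ha water volume; a, b, c mark dose levels.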

[15] = tested on: Verconica persica (VERPE); test: Pre-emergence herbicidal action against VERPE
Method in brief: as §1

[16] = tested on: Abutilon theophrasti (ABUTH); test: Post-emergence herbicidal action against ABUTH; conditions: 80 g/ha, visual rating about 3 weeks after treatment vs untreated controls (100% = plants have died, 0% = like control plants)
Method in brief: as §2

[17] = tested on: Echinochloa crus-galli (ECHCG); test: Pre-emergence herbicidal action against ECHCG
Method in brief: as §1

Avena fatua (AVEFA) [18] = test: Post-emergence herbicidal action against AVEFA; conditions: 80 g/ha, visual rating about 3 weeks after treatment
Method in brief: as §2

[19] = tested on: Polygonum convolvulus (POLCO); test: Pre-emergence herbicidal action against POLCO
Method in brief: as §1

[20] = tested on: Matricaria inodora (MATIN); test: Pre-emergence herbicidal action against MATIN
Method in brief: as §1

[21] = tested on: Echinochloa crus-galli (ECHCG); test: Post-emergence herbicidal action against ECHCG; conditions: dosage 80 g/ha
Method in brief: as §2

[22] = 80 g/ha, scored visually after about 3 weeks vs untreated controls, 0% = like control plants
[23] = Dosage column 320 g/ha (title prints 3200 g/ha), scored visually after about 3 weeks
[24] = 20 g/ha, effect vs untreated controls
[25] = 80 g/ha, effect in comparison to untreated controls

- Post-emergence action against ORYSA in % (Oryza sativa (ORYSA); [24]): 0%
- Post-emergence action against ORYSA in % (Oryza sativa (ORYSA); [25]): 10%
SMILES: COC(=O)CCOC(=O)[C@@H](C)Oc1nn(-c2ccccn2)c(-c2cncc(F)c2)c1Br [Example I-73]
- Pre-emergence action against AVEFA in % (Avena fatua (AVEFA) [1]): 80%
- Post-emergence action against SETVI in % (Setaria viridis (SETVI) [2]): 80%
- Post-emergence action against VERPE in % [3]: 80%
- Post-emergence action against ALOMY in % [4]: 100%
- Post-emergence action against LOLRI in % (Lolium rigidum (LOLRI) [5]): 80%
- Pre-emergence action against SETVI in % (Setaria viridis (SETVI) [6]; dosage 80 g/ha): 90%
- Pre-emergence action against SETVI in % (Setaria viridis (SETVI) [6]; dosage 320 g/ha): 100%
- Pre-emergence action against ALOMY ([7]; 80 g/ha): 90%
- Pre-emergence action against ALOMY ([7]; 320 g/ha): 100%
- Pre-emergence action against VIOTR in % (Viola tricolor (VIOTR); 320 g/ha, Viola tricolor): 100%
- Pre-emergence action against VIOTR in % (Viola tricolor (VIOTR); dosage 80 g/ha): 100%
- Pre-emergence action against PHBPU in % ([8]; dosage 320 g/ha): 90%
- Post-emergence action against POLCO in % [9]: 90%
- Post-emergence action against AMARE in % [10]: 90%
- Pre-emergence action against ABUTH [11, 22]: 80%
- Pre-emergence action against ABUTH [11, 23]: 90%
- Post-emergence action against PHBPU in % [12]: 90%
- Pre-emergence action against AMARE in % ([13]; 80 g/ha): 100%
- Pre-emergence action against AMARE in % ([13]; 320 g/ha): 100%
- Pre-emergence action against LOLRI in % (Lolium rigidum (LOLRI) [14]; dosage 80 g/ha): 100%
- Pre-emergence action against LOLRI in % (Lolium rigidum (LOLRI) [14]; dosage 320 g/ha): 100%
- Pre-emergence action against VERPE in % ([15]; dosage 320 g/ha): 100%
- Post-emergence action against ABUTH in % [16]: 80%
- Pre-emergence action against ECHCG in % ([17]; dosage 320 g/ha): 90%
- Post-emergence action against AVEFA in % (Avena fatua (AVEFA) [18]): 80%
- Pre-emergence action against POLCO in % ([19]; dosage 80 g/ha): 80%
- Pre-emergence action against POLCO in % ([19]; dosage 320 g/ha): 90%
- Pre-emergence action against MATIN in % ([20]; dosage 320 g/ha): 90%
- Post-emergence action against ECHCG in % [21]: 80%

- Post-emergence action against ORYSA in % (Oryza sativa (ORYSA); [24]): 0%
- Post-emergence action against ORYSA in % (Oryza sativa (ORYSA); [25]): 0%
SMILES: C[C@@H](Oc1nn(-c2ccccn2)c(-c2cncc(F)c2)c1Br)C(=O)O [Example I-79]
- Pre-emergence action against AVEFA in % (Avena fatua (AVEFA) [1]): 100%
- Post-emergence action against SETVI in % (Setaria viridis (SETVI) [2]): 80%
- Post-emergence action against VERPE in % [3]: 80%
- Post-emergence action against ALOMY in % [4]: 80%
- Pre-emergence action against SETVI in % (Setaria viridis (SETVI) [6]; dosage 80 g/ha): 100%
- Pre-emergence action against SETVI in % (Setaria viridis (SETVI) [6]; dosage 320 g/ha): 100%
- Pre-emergence action against ALOMY ([7]; 80 g/ha): 90%
- Pre-emergence action against ALOMY ([7]; 320 g/ha): 100%
- Pre-emergence action against VIOTR in % (Viola tricolor (VIOTR); 320 g/ha, Viola tricolor): 100%
- Pre-emergence action against VIOTR in % (Viola tricolor (VIOTR); dosage 80 g/ha): 100%
- Pre-emergence action against PHBPU in % ([8]; dosage 80 g/ha): 90%
- Pre-emergence action against PHBPU in % ([8]; dosage 320 g/ha): 90%
- Post-emergence action against POLCO in % [9]: 80%
- Post-emergence action against AMARE in % [10]: 90%
- Pre-emergence action against ABUTH [11, 22]: 80%
- Pre-emergence action against ABUTH [11, 23]: 90%
- Post-emergence action against PHBPU in % [12]: 80%
- Pre-emergence action against AMARE in % ([13]; 80 g/ha): 100%
- Pre-emergence action against AMARE in % ([13]; 320 g/ha): 100%
- Pre-emergence action against LOLRI in % (Lolium rigidum (LOLRI) [14]; dosage 80 g/ha): 100%
- Pre-emergence action against LOLRI in % (Lolium rigidum (LOLRI) [14]; dosage 320 g/ha): 100%
- Pre-emergence action against VERPE in % ([15]; dosage 80 g/ha): 80%
- Pre-emergence action against VERPE in % ([15]; dosage 320 g/ha): 100%
- Post-emergence action against ABUTH in % [16]: 80%
- Pre-emergence action against ECHCG in % ([17]; dosage 80 g/ha): 80%
- Pre-emergence action against ECHCG in % ([17]; dosage 320 g/ha): 100%
- Post-emergence action against AVEFA in % (Avena fatua (AVEFA) [18]): 100%
- Pre-emergence action against POLCO in % ([19]; dosage 80 g/ha): 90%
- Pre-emergence action against POLCO in % ([19]; dosage 320 g/ha): 90%
- Pre-emergence action against MATIN in % ([20]; dosage 80 g/ha): 80%
- Pre-emergence action against MATIN in % ([20]; dosage 320 g/ha): 90%
